{"source": "patent US7192906B2", "about": "“Substituted pyrazole derivatives, production process thereof, and herbicide compositions containing the derivatives” (SDS Biotech K.K., priority 2001, dated 2007)", "assay_type_in_all_cases": "in vivo", "key": {"Stellaria media [1]": {"system": "Stellaria media", "test": "Test Example 2 upland soil treatment", "conditions": "Table 5, upland soil treatment, index 0-5", "procedure": "(§1) A plastic pot of 130 cm^2 was filled with upland soil. Subsequently, weed seeds of Setaria viridis, Digitaria adscendens, Chenopodium album and Stellaria media, and crop seeds of soybean (Glycine max) and wheat (Triticum aestivum), were sowed and covered with soil of about 1 cm thickness. On the next day after the sowing, the wettable powder prepared in Formulation Example 1 was diluted with water such that the amount of the active ingredient became 1 kg per hectare, and then uniformly applied to the soil surface. On the 21st day after the application, observation and evaluation were carried out according to the aforesaid criteria.\n(§2) Herbicidal activity was evaluated based on the following criteria.\n(§3) • 5: herbicidal effect of not less than 90%, or phytotoxicity of 90% or more • 4: herbicidal effect of not less than 70% and less than 90%, or phytotoxicity of 70% or more and less than 90% • 3: herbicidal effect of not less than 50% and less than 70%, or phytotoxicity of 50% or more and less than 70% • 2: herbicidal effect of not less than 30% and less than 50%, or phytotoxicity of 30% or more and less than 50% • 1: herbicidal effect of not less than 10% and less than 30%, or phytotoxicity of 10% or more and less than 30% • 0: herbicidal effect of not less than 0% and less than 10%, or phytotoxicity of 0% or more and less than 10%"}, "Setaria viridis [2]": {"system": "Setaria viridis", "test": "Test Example 2 upland soil treatment", "conditions": "Table 5, upland soil treatment, index 0-5", "procedure": "as §1, §2, §3"}, "Digitaria adscendens [3]": {"system": "Digitaria adscendens", "test": "Test Example 2 upland soil treatment", "conditions": "Table 5, upland soil treatment, index 0-5", "procedure": "as §1, §2, §3"}, "Chenopodium album [4]": {"system": "Chenopodium album", "test": "Test Example 2 upland soil treatment", "conditions": "Table 5, upland soil treatment, index 0-5", "procedure": "as §1, §2, §3"}, "Stellaria media [5]": {"system": "Stellaria media", "test": "Test Example 1 upland field foliage treatment", "conditions": "Table 4, upland field foliage treatment, index 0-5", "procedure": "as §1, with “14th” for “next”, “plant leaf surfaces.” for “soil surface.”, “criteria described below.” for “aforesaid criteria.”\nas §2, §3"}, "Setaria viridis [6]": {"system": "Setaria viridis", "test": "Test Example 1 upland field foliage treatment", "conditions": "Table 4, upland field foliage treatment, index 0-5", "procedure": "as §1, with “14th” for “next”, “plant leaf surfaces.” for “soil surface.”, “criteria described below.” for “aforesaid criteria.”\nas §2, §3"}, "Digitaria adscendens [7]": {"system": "Digitaria adscendens", "test": "Test Example 1 upland field foliage treatment", "conditions": "Table 4, upland field foliage treatment, index 0-5", "procedure": "as §1, with “14th” for “next”, “plant leaf surfaces.” for “soil surface.”, “criteria described below.” for “aforesaid criteria.”\nas §2, §3"}, "Chenopodium album [8]": {"system": "Chenopodium album", "test": "Test Example 1 upland field foliage treatment", "conditions": "Table 4, upland field foliage treatment, index 0-5", "procedure": "as §1, with “14th” for “next”, “plant leaf surfaces.” for “soil surface.”, “criteria described below.” for “aforesaid criteria.”\nas §2, §3"}, "soybean (Glycine max) [9]": {"system": "soybean (Glycine max)", "test": "Test Example 2 upland soil treatment, crop phytotoxicity", "conditions": "Table 5, upland soil treatment, index 0-5", "procedure": "as §1, §2, §3"}, "[10]": {"system": "wheat (Triticum aestivum)", "test": "Test Example 2 upland soil treatment, crop phytotoxicity", "conditions": "Table 5, upland soil treatment, index 0-5", "procedure": "as §1, §2, §3"}, "soybean (Glycine max) [11]": {"system": "soybean (Glycine max)", "test": "Test Example 1 upland field foliage treatment, crop phytotoxicity", "conditions": "Table 4, upland field foliage treatment, index 0-5", "procedure": "as §1, with “14th” for “next”, “plant leaf surfaces.” for “soil surface.”, “criteria described below.” for “aforesaid criteria.”\nas §2, §3"}, "[12]": {"system": "wheat (Triticum aestivum)", "test": "Test Example 1 upland field foliage treatment, crop phytotoxicity", "conditions": "Table 4, upland field foliage treatment, index 0-5", "procedure": "as §1, with “14th” for “next”, “plant leaf surfaces.” for “soil surface.”, “criteria described below.” for “aforesaid criteria.”\nas §2, §3"}}}
{"compound": "CNC(=O)C(Cn1cc(C)c(-c2cccc(C)c2)n1)=NOC", "note": "[Compound 36]", "values": [{"measurement": "Herbicidal activity SM: Stellaria media", "setting": "Stellaria media [1]", "result": "5 (herbicidal effect of not less than 90%, or phytotoxicity of 90% or more)"}, {"measurement": "Herbicidal activity SV: Setaria viridis", "setting": "Setaria viridis [2]", "result": "4 (herbicidal effect of not less than 70% and less than 90%, or phytotoxicity of 70% or more and less than 90%)"}, {"measurement": "Herbicidal activity DA: Digitaria adscendens", "setting": "Digitaria adscendens [3]", "result": "4 (herbicidal effect of not less than 70% and less than 90%, or phytotoxicity of 70% or more and less than 90%)"}, {"measurement": "Herbicidal activity CA: Chenopodium album", "setting": "Chenopodium album [4]", "result": "5 (herbicidal effect of not less than 90%, or phytotoxicity of 90% or more)"}, {"measurement": "Herbicidal activity SM: Stellaria media", "setting": "Stellaria media [5]", "result": "4 (herbicidal effect of not less than 70% and less than 90%, or phytotoxicity of 70% or more and less than 90%)"}, {"measurement": "Herbicidal activity SV: Setaria viridis", "setting": "Setaria viridis [6]", "result": "4 (herbicidal effect of not less than 70% and less than 90%, or phytotoxicity of 70% or more and less than 90%)"}, {"measurement": "Herbicidal activity DA: Digitaria adscendens", "setting": "Digitaria adscendens [7]", "result": "5 (herbicidal effect of not less than 90%, or phytotoxicity of 90% or more)"}, {"measurement": "Herbicidal activity CA: Chenopodium album", "setting": "Chenopodium album [8]", "result": "5 (herbicidal effect of not less than 90%, or phytotoxicity of 90% or more)"}, {"measurement": "Herbicidal activity (phytotoxicity) GM: Soybean (Glycine max)", "setting": "soybean (Glycine max) [9]", "result": "1 (herbicidal effect of not less than 10% and less than 30%, or phytotoxicity of 10% or more and less than 30%)"}, {"measurement": "Herbicidal activity (phytotoxicity) TA: Wheat (Triticum aestivum)", "setting": "[10]", "result": "0 (herbicidal effect of not less than 0% and less than 10%, or phytotoxicity of 0% or more and less than 10%)"}, {"measurement": "Herbicidal activity (phytotoxicity) GM: Soybean (Glycine max)", "setting": "soybean (Glycine max) [11]", "result": "0 (herbicidal effect of not less than 0% and less than 10%, or phytotoxicity of 0% or more and less than 10%)"}, {"measurement": "Herbicidal activity (phytotoxicity) TA: Wheat (Triticum aestivum)", "setting": "[12]", "result": "0 (herbicidal effect of not less than 0% and less than 10%, or phytotoxicity of 0% or more and less than 10%)"}]}
{"compound": "CNC(=O)C(Cn1cc(C)c(-c2cccc(Cl)c2)n1)=NOC", "note": "[Compound 46]", "values": [{"measurement": "Herbicidal activity SM: Stellaria media", "setting": "Stellaria media [1]", "result": "5 (herbicidal effect of not less than 90%, or phytotoxicity of 90% or more)"}, {"measurement": "Herbicidal activity SV: Setaria viridis", "setting": "Setaria viridis [2]", "result": "5 (herbicidal effect of not less than 90%, or phytotoxicity of 90% or more)"}, {"measurement": "Herbicidal activity DA: Digitaria adscendens", "setting": "Digitaria adscendens [3]", "result": "5 (herbicidal effect of not less than 90%, or phytotoxicity of 90% or more)"}, {"measurement": "Herbicidal activity CA: Chenopodium album", "setting": "Chenopodium album [4]", "result": "5 (herbicidal effect of not less than 90%, or phytotoxicity of 90% or more)"}, {"measurement": "Herbicidal activity SM: Stellaria media", "setting": "Stellaria media [5]", "result": "5 (herbicidal effect of not less than 90%, or phytotoxicity of 90% or more)"}, {"measurement": "Herbicidal activity SV: Setaria viridis", "setting": "Setaria viridis [6]", "result": "5 (herbicidal effect of not less than 90%, or phytotoxicity of 90% or more)"}, {"measurement": "Herbicidal activity DA: Digitaria adscendens", "setting": "Digitaria adscendens [7]", "result": "5 (herbicidal effect of not less than 90%, or phytotoxicity of 90% or more)"}, {"measurement": "Herbicidal activity CA: Chenopodium album", "setting": "Chenopodium album [8]", "result": "5 (herbicidal effect of not less than 90%, or phytotoxicity of 90% or more)"}, {"measurement": "Herbicidal activity (phytotoxicity) GM: Soybean (Glycine max)", "setting": "soybean (Glycine max) [9]", "result": "1 (herbicidal effect of not less than 10% and less than 30%, or phytotoxicity of 10% or more and less than 30%)"}, {"measurement": "Herbicidal activity (phytotoxicity) TA: Wheat (Triticum aestivum)", "setting": "[10]", "result": "0 (herbicidal effect of not less than 0% and less than 10%, or phytotoxicity of 0% or more and less than 10%)"}, {"measurement": "Herbicidal activity (phytotoxicity) GM: Soybean (Glycine max)", "setting": "soybean (Glycine max) [11]", "result": "0 (herbicidal effect of not less than 0% and less than 10%, or phytotoxicity of 0% or more and less than 10%)"}, {"measurement": "Herbicidal activity (phytotoxicity) TA: Wheat (Triticum aestivum)", "setting": "[12]", "result": "0 (herbicidal effect of not less than 0% and less than 10%, or phytotoxicity of 0% or more and less than 10%)"}]}
{"compound": "CNC(=O)C(Cn1cc(C)c(-c2ccc(OCc3ccccc3)cc2)n1)=NOC", "note": "[Compound 54]", "values": [{"measurement": "Herbicidal activity SM: Stellaria media", "setting": "Stellaria media [1]", "result": "5 (herbicidal effect of not less than 90%, or phytotoxicity of 90% or more)"}, {"measurement": "Herbicidal activity SV: Setaria viridis", "setting": "Setaria viridis [2]", "result": "3 (herbicidal effect of not less than 50% and less than 70%, or phytotoxicity of 50% or more and less than 70%)"}, {"measurement": "Herbicidal activity DA: Digitaria adscendens", "setting": "Digitaria adscendens [3]", "result": "4 (herbicidal effect of not less than 70% and less than 90%, or phytotoxicity of 70% or more and less than 90%)"}, {"measurement": "Herbicidal activity CA: Chenopodium album", "setting": "Chenopodium album [4]", "result": "5 (herbicidal effect of not less than 90%, or phytotoxicity of 90% or more)"}, {"measurement": "Herbicidal activity SM: Stellaria media", "setting": "Stellaria media [5]", "result": "4 (herbicidal effect of not less than 70% and less than 90%, or phytotoxicity of 70% or more and less than 90%)"}, {"measurement": "Herbicidal activity SV: Setaria viridis", "setting": "Setaria viridis [6]", "result": "4 (herbicidal effect of not less than 70% and less than 90%, or phytotoxicity of 70% or more and less than 90%)"}, {"measurement": "Herbicidal activity DA: Digitaria adscendens", "setting": "Digitaria adscendens [7]", "result": "5 (herbicidal effect of not less than 90%, or phytotoxicity of 90% or more)"}, {"measurement": "Herbicidal activity CA: Chenopodium album", "setting": "Chenopodium album [8]", "result": "4 (herbicidal effect of not less than 70% and less than 90%, or phytotoxicity of 70% or more and less than 90%)"}, {"measurement": "Herbicidal activity (phytotoxicity) GM: Soybean (Glycine max)", "setting": "soybean (Glycine max) [9]", "result": "0 (herbicidal effect of not less than 0% and less than 10%, or phytotoxicity of 0% or more and less than 10%)"}, {"measurement": "Herbicidal activity (phytotoxicity) TA: Wheat (Triticum aestivum)", "setting": "[10]", "result": "0 (herbicidal effect of not less than 0% and less than 10%, or phytotoxicity of 0% or more and less than 10%)"}, {"measurement": "Herbicidal activity (phytotoxicity) GM: Soybean (Glycine max)", "setting": "soybean (Glycine max) [11]", "result": "0 (herbicidal effect of not less than 0% and less than 10%, or phytotoxicity of 0% or more and less than 10%)"}, {"measurement": "Herbicidal activity (phytotoxicity) TA: Wheat (Triticum aestivum)", "setting": "[12]", "result": "0 (herbicidal effect of not less than 0% and less than 10%, or phytotoxicity of 0% or more and less than 10%)"}]}
{"compound": "CNC(=O)C(Cn1cc(C)c(-c2ccc(SC(F)(F)F)cc2)n1)=NOC", "note": "[Compound 70]", "values": [{"measurement": "Herbicidal activity SM: Stellaria media", "setting": "Stellaria media [1]", "result": "4 (herbicidal effect of not less than 70% and less than 90%, or phytotoxicity of 70% or more and less than 90%)"}, {"measurement": "Herbicidal activity SV: Setaria viridis", "setting": "Setaria viridis [2]", "result": "3 (herbicidal effect of not less than 50% and less than 70%, or phytotoxicity of 50% or more and less than 70%)"}, {"measurement": "Herbicidal activity DA: Digitaria adscendens", "setting": "Digitaria adscendens [3]", "result": "3 (herbicidal effect of not less than 50% and less than 70%, or phytotoxicity of 50% or more and less than 70%)"}, {"measurement": "Herbicidal activity CA: Chenopodium album", "setting": "Chenopodium album [4]", "result": "4 (herbicidal effect of not less than 70% and less than 90%, or phytotoxicity of 70% or more and less than 90%)"}, {"measurement": "Herbicidal activity SM: Stellaria media", "setting": "Stellaria media [5]", "result": "4 (herbicidal effect of not less than 70% and less than 90%, or phytotoxicity of 70% or more and less than 90%)"}, {"measurement": "Herbicidal activity SV: Setaria viridis", "setting": "Setaria viridis [6]", "result": "4 (herbicidal effect of not less than 70% and less than 90%, or phytotoxicity of 70% or more and less than 90%)"}, {"measurement": "Herbicidal activity DA: Digitaria adscendens", "setting": "Digitaria adscendens [7]", "result": "5 (herbicidal effect of not less than 90%, or phytotoxicity of 90% or more)"}, {"measurement": "Herbicidal activity CA: Chenopodium album", "setting": "Chenopodium album [8]", "result": "5 (herbicidal effect of not less than 90%, or phytotoxicity of 90% or more)"}, {"measurement": "Herbicidal activity (phytotoxicity) GM: Soybean (Glycine max)", "setting": "soybean (Glycine max) [9]", "result": "0 (herbicidal effect of not less than 0% and less than 10%, or phytotoxicity of 0% or more and less than 10%)"}, {"measurement": "Herbicidal activity (phytotoxicity) TA: Wheat (Triticum aestivum)", "setting": "[10]", "result": "0 (herbicidal effect of not less than 0% and less than 10%, or phytotoxicity of 0% or more and less than 10%)"}, {"measurement": "Herbicidal activity (phytotoxicity) GM: Soybean (Glycine max)", "setting": "soybean (Glycine max) [11]", "result": "0 (herbicidal effect of not less than 0% and less than 10%, or phytotoxicity of 0% or more and less than 10%)"}, {"measurement": "Herbicidal activity (phytotoxicity) TA: Wheat (Triticum aestivum)", "setting": "[12]", "result": "0 (herbicidal effect of not less than 0% and less than 10%, or phytotoxicity of 0% or more and less than 10%)"}]}
